Patent US20090123447A1, “COMPOSITIONS AND METHODS TO INHIBIT RNA VIRAL REPRODUCTION” (priority 2007, published 2009)
Read-outs that look alike come from different tables or passages of the source.

Key:
[1] = system: subgenomic HCV replicon of genotype 1b; assay: microbe, parasite or virus in culture; format: cell-based, hepatitis C virus
Protocol: Huh7 human hepatoma cells were cultured in Dulbecco's modified Eagle medium (DMEM; Invitrogen, Carlsbad, Calif., USA) supplemented with 10% fetal bovine serum (FBS; Invitrogen), 100 units/ml of penicillin, and 100 μg/ml of streptomycin in a 5% CO2 incubator. SgPC2 cells are G418-selected, pooled Huh7 cell clones that support the continuous replication of a subgenomic HCV replicon of genotype 1b and [29] (GenBank Accession No. AJ242652) that carries a S11791 adaptive mutation within the NS5A region. SgPC2 cells were maintained in the above medium supplemented with 0.5 mg/ml G418 (Invitrogen). G418 was removed at least 1 day before cell treatments.

[2] = system: newly synthesized HCV RNA; assay: 3H labeling of newly synthesized HCV RNA in SgPC2 cells; format: cell-based, hepatitis C virus; conditions: 6 h
Protocol: One million SgPC2 cells were pretreated with 2 μM BAPTA-AM or DMSO alone for 1 h and then treated with 0 or 100 μM H2O2 in the presence of 100 μCi of [^3H]uridine (35-50 Ci/mmol; MP Biomedicals, Irvine, Calif., USA) and 4 μg/ml actinomycin D (Sigma-Aldrich) for 5 to 6 h and then lysed for the RNA isolation. RNA was analyzed on a 1% formaldehyde agarose gel, which was then treated with 1 M sodium salicylate for 20-30 min for fluorography. The RNA gel was also stained with ethidium bromide to visualize rRNA bands to serve as loading controls.

[3] = system: HCV replication complex (RC); assay: In vitro HCV replication assay with cytoplasmic lysates of SgPC2 cells; format: cell-based, hepatitis C virus; conditions: for effect on the suppression of in vitro HCV replication by H2O2: pretreatment of SgPC2 cells before H2O2
Protocol: In vitro replication assay was carried out according to the protocol of Ali et al., with slight modifications. Briefly, SgPC2 cells were grown to approximately 50-60% confluence in 100-mm dishes. Then, […], and cytoplasmic lysates were prepared by gently lysing the cells in the incomplete replication buffer (prepared without dithiothreitol) immediately after treating the cells with lysolecithin-containing washing solution (150 mM sucrose, 30 mM Hepes, pH 7.4, 33 mM ammonium chloride, 7 mM KCl, 4.5 mM magnesium acetate, 250 μg/ml lysolecithin) for 1-2 min. Twenty to 50 μCi of [α-^32P]CTP (3000 Ci/mmol) and 1-2 μg of actinomycin D were added to 70 μl of these cytoplasmic lysates, and the replication reaction was allowed to proceed for 1 h at 30° C. Then, RNA was isolated by phenol:chloroform extraction and ethanol precipitation. The ^32P-labeled transcripts were then analyzed on a 1% formaldehyde agarose gel which was subsequently washed with H2O, dried, and analyzed with a phosphoimager.

full-length NS5B = molecular target: T1, full-length NS5B (Hepatitis C virus genotype 1b, UniProt P26663); assay: NS5B RdRp assay, de novo RNA synthesis in vitro; format: biochemical
T1 construct: Full-length NS5B protein was purified from Escherichia coli; made in house; host or cells: Escherichia coli
Excerpt: Full-length NS5B protein was purified from Escherichia coli, as previously described, and was used to catalyze de novo RNA synthesis in vitro [36].

JFH1 HCV (genotype 2a) = format: cell-based, hepatitis C virus
Protocol: For viral RNA transfection, JFH1, JFH1/GND, and pSGR-JFH1-Luc were linearized with XbaI and used to synthesize the corresponding positive-sense stranded HCV RNA, as previously described (68). Then, 5×10^6 Huh7 cells were rinsed with Opti-Mem (Invitrogen), mixed briefly with 10-20 μg of the in vitro transcribed RNA in 0.4 ml of Opti-Mem, and then electroporated at 260 volts and 950 μF. […] Medium was changed daily. For infection with HCV, medium collected from JFH1 RNA-transfected cells were cleared of cell debris, as described, and added to naïve Huh7 cells. Typically, 1:2 or 3:2 ratio of the virus-containing medium and fresh cell culture medium were used.
JFH1/GND was used as the negative control. When L-buthionine S,R-sulfoximine (BSO) was used, the cells were pretreated with BSO for 16-24 hrs prior to the initiation of treatments.
Intracellular JFH1 HCV RNA content was also analyzed by qRT-PCR (Taqman), using ABI7300 real time PCR system and one step RT-PCR kit from Applied Biosystems. The forward primer was 5′-[…]-3′ (nt. 146 to 164) and the reverse primer, 5′-[…]-3′ (nt. 277 to 295). The probe was 5′[…]3′ (nt. 168 to 188) and was fluorogenically labeled with FAM (5′) and TAMRA (3′) (Biosearch Technologies, Novato, Calif.). Briefly, the reactions were carried out at 48° C. for 30 min for reverse transcription, followed by denaturation at 95° C. for 10 min, and then 50 cycles of 15 sec denaturation at 95° C. plus 60 sec of annealing and extension at 60° C. All samples were analyzed in duplicates or triplicates. In vitro RNA transcripts were used to generate standard curve to determine RNA copy numbers. The level of 18S rRNA was also analyzed, using manufacturer-optimized protocol, as the control.
To analyze the amount of the extracellular HCV RNA, medium from the cells were cleared by low-speed centrifugation and then, treated with RNaseA at room temperature. Then, the RNA samples were extracted, using Trizol LS Reagent (Invitrogen), and analyzed for HCV RNA content by qRT-PCR.

[4] = system: intracellular calcium concentration ([Ca^2+]i); assay: [Ca^2+]i measurement with Indo-1 AM in SgPC2 cells; format: cell-based, human; conditions: for change in [Ca^2+]i: SgPC2 cells
Protocol: Briefly, on the day of the experiment, cells were washed in Krebs-Ringer phosphate buffer (KRPH; pH 7.4, containing 1.0 mM MgSO4, 1.3 mM CaCl2, 10 mM Hepes, 5 mM glucose, 125 mM NaCl, 5 mM KCl, and 10 mM sodium phosphate) and subsequently loaded with 10-20 μM Indo-1 AM (70 μl/coverslip; Molecular Probes, Inc., Eugene, Oreg., USA) containing 10 μM probenecid (Molecular Probes) for 30 min at 37° C. The attached cells were washed and bathed in KRPH/probenecid at 4° C. or room temperature until further analysis. Then, coverslips were individually submerged into KRPH and preequilibrated inside the […] fluorimeter (Hitachi) in darkness for 3 min, and [Ca^2+]i was monitored continuously at 37° C., with excitation at […] and emission at 400 and 450 nm. H2O2 and other agents were injected at different time points, as indicated under Results. [Ca^2+]i was calculated as described. Rmax was determined by adding 8-16 μM digitonin and Rmin with 10 mM ethylene glycol-bis(β-aminoethyl)-N,N,N'-tetraacetic acid (EGTA). […] The baseline, which represented unstimulated cells scanned over time, was plotted along with other measurements or subtracted from the other plots. Cells were serum-depleted, 1 day before the experiment, by incubating them overnight in DMEM plus 0.5% FBS. […] Then, CaCl2 was added before determining the Rmax for each run.

SgPC2 cells [5] = system: SgPC2 cells
Protocol: Intracellular GSH concentration was determined using a GSH recycling assay and expressed as nmol/mg protein. ATP level was measured using the Somatic Cell ATP assay kit from Sigma-Aldrich, as previously described. Protein level was determined with a bicinchoninic acid kit (Pierce Biotechnology, Inc., Rockford, Ill., USA).

SgPC2 cells [6] = conditions: JC-1 and annexin V-FITC staining
Protocol: Mitochondrial membrane potential was measured with JC1, using a Guava cytometer (Guava Technologies, Inc.). Apoptosis was also monitored with annexin V-FITC, with a 96-Nexin kit from Guava Technologies, Inc.

genomic HCV RNA = conditions: Huh7 cells transfected with genomic HCV RNA, H2O2 24 h
Protocol: Then, 5×10^6 Huh7 cells were rinsed with DMEM, mixed briefly with 10-20 μg of the subgenomic replicon RNA in 0.4 ml of DMEM, and then electroporated at 220 V and 975 μF. Then, 1 million cells were seeded onto 60-mm cell culture dishes in DMEM containing 10% FBS. Medium was changed daily and, after 2-4 days, the cells were preincubated with 1,2-bis(2-aminophenoxy)ethane-N,N,N′,N′-tetraacetic acid tetrakis acetoxymethyl ester (BAPTA-AM) or vehicle control alone for 1 h. Then, the cells were exposed to H2O2 for 24 h, and the amount of the HCV RNA was analyzed by Northern blot (see below).
Total RNA was extracted from cells, using Trizol reagent (Invitrogen), following the manufacturer's protocol. Five to 20 μg of RNA was then subjected to Northern blot analysis using a ^32P-labeled double-stranded DNA probe prepared from nt 3669 to nt 6016 of the subgenomic replicon. For these and all other experiments, RNA and protein bands were quantified with a phosphoimager (Cyclone; Perkin-Elmer) or by densitometry using SigmaScan (Jandel Scientific) or IS2000R (Kodak). The intensities of the bands of interest were normalized against the control glyceraldehyde-3-phosphate dehydrogenase (GAPDH) mRNA.

T1 sequence (P26663 2420-3010): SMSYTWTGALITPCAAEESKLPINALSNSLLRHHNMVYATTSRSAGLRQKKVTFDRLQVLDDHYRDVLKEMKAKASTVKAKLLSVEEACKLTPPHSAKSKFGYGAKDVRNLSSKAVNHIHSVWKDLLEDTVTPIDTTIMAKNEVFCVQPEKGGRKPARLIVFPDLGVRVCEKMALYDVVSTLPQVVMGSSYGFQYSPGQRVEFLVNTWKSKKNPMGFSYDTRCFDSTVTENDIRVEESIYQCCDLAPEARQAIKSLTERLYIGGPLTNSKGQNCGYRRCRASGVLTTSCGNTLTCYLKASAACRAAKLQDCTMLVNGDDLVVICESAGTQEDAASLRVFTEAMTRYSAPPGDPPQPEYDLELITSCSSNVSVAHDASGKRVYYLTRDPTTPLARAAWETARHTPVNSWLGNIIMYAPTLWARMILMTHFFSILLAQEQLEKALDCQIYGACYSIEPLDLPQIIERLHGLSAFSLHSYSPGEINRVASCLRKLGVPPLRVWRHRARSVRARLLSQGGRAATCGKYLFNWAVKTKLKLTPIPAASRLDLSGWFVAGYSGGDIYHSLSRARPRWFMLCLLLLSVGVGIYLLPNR

## CC(=O)OCOC(=O)CN(CC(=O)OCOC(C)=O)c1ccccc1OCCOc1ccccc1N(CC(=O)OCOC(C)=O)CC(=O)OCOC(C)=O [BAPTA-AM, 1,2-bis(2-aminophenoxy)ethane-N,N,N′-tetraacetic acid tetrakis acetoxymethyl ester]
[1]; SgPC2 cells, GO 24 h, 130-200 U/ml catalase or 2 μM BAPTA-AM
  effect on the suppression of HCV RNA by GO: alleviate the suppressive effect of GO
[2]; 2 μM BAPTA-AM pretreatment
  effect on the suppression of HCV RNA replication by H2O2 ([3H]uridine): completely removed the suppression
[2]
  amount of HCV RNA synthesized ([3H]uridine, actinomycin D): no significant effect
[3]
  effect on the suppression of in vitro HCV replication by H2O2: removed this suppression at both time points tested

## [Ca+2].[Cl-].[Cl-] [CaCl2]
[3]; added to untreated lysates before assay
  in vitro HCV RNA replication, agent added directly to the cytoplasmic lysates: could decrease
full-length NS5B; 0.1 and 1 μM
  in vitro de novo RNA synthesis by NS5B: only marginally suppressed
full-length NS5B; higher concentrations
  NS5B polymerase activity: enhanced the polymerase activity

## C[C@H](CCC(=O)O)C[C@H](C)C[C@H](C)C(=O)/C=C(\O)[C@H](C)C[C@H](C)C/C=C/[C@@H](C)[C@@H](O)[C@@H](C)[C@@H](O)C[C@@H]1CC[C@@](C)([C@H]2CC[C@@](C)([C@@H](C)O)O2)O1 [ionomycin]
[3]
  effect on the suppression of in vitro HCV replication by H2O2: significantly alleviated

## N[C@@H](CCC(=O)N[C@@H](CS)C(=O)NCC(=O)O)C(=O)O [GSH, glutathione, reference compound]
JFH1 HCV (genotype 2a)
  restoration of HCV RNA levels suppressed by BSO: not able to restore HCV replication

## c1ccc2c(c1)[I+]c1ccccc1-2 [DPI, Diphenylene Iodonium, reference compound]
[1]
  effect on HCV RNA level / replication: significantly elevated

## C/C=C(/C)C(=O)O[C@H]1C(C)=C2[C@H]([C@@H]1OC(=O)CCCCCCC)[C@@](C)(OC(C)=O)C[C@H](OC(=O)CCC)[C@@]1(O)[C@H]2OC(=O)[C@@]1(C)O [TG, thapsigargin, reference compound]
[4]; Homo sapiens, 400 nM TG pretreatment 10 min, no extracellular calcium, read-out: peroxide-induced calcium elevation after TG pretreatment, % of control
  activity at 0.4 µM: 58.3 ± 8.4%
[4]
  change in [Ca^2+]i: transient rise
[4]; no extracellular calcium, no H2O2 pretreatment
  AUC of TG-induced calcium response in control cells: 772.3±189.3 Ca^2+/min

## N.N.N.N.N.N.N.N.N.N.N.N.N.N.[Cl-].[Cl-].[Cl-].[Cl-].[Cl-].[Cl-].[O-2].[O-2].[Ru+3].[Ru+3].[Ru+4] [ruthenium red, reference compound]
[4]
  basal calcium or magnitude/kinetics of the peroxide-induced calcium elevation: no effect

## OO [H2O2, Hydrogen peroxide]
[1]
  HCV RNA (normalized to GAPDH mRNA), % of untreated control: 36.8±16.6%
  effect on HCV RNA replication after 30 min of treatment: significant suppression
  suppression of HCV RNA level compared with IFN-γ: as effective as 100 to 2500 U/ml IFN-γ
[1]; Hepatitis C virus, 24 h, read-out: IC50 of suppression of HCV RNA level
  IC50: ~25 µM
[4]; 100 μM H2O2, with BAPTA (2 μM BAPTA-AM pretreatment)
  AUC of [Ca^2+]i elevation: 128.4±82.3 Ca^2+/min
[4]; 100 μM H2O2, without BAPTA
  AUC of [Ca^2+]i elevation: 935.9±58.9 Ca^2+/min
[4]; H2O2 pretreatment 13 min, no extracellular calcium
  TG-induced calcium elevation after H2O2 pretreatment, % of control: 9.2±2.6%
[4]
  change in [Ca^2+]i: gradual rise
[4]; with 1.3 mM extracellular calcium
  AUC of peroxide-induced calcium elevation: 1278.5±109.5 Ca^2+/min
[4]; without extracellular calcium
  AUC of peroxide-induced calcium elevation: 1105.1±238.1 Ca^2+/min
[2]
  amount of HCV RNA synthesized ([3H]uridine, actinomycin D): significantly decreased
SgPC2 cells [5]; 30 min of treatment
  total ATP content, % of untreated control: 125.4±0.3%
SgPC2 cells [5]; 24 h of treatment
  total ATP content, % of untreated control: 97.3±8.25%
SgPC2 cells [6]
  mitochondrial membrane potential or apoptosis: no significant effect
JFH1 HCV (genotype 2a)
  intracellular and extracellular HCV RNA levels: significantly decreased
Genomic HCV RNA
  genomic HCV RNA, % of untreated control: 34.0±4.0%
IP3
  inositol 1,3-triphosphate (IP3) level: did not increase

## cyclosporin A [reference compound]
[4]
  basal calcium or magnitude/kinetics of the peroxide-induced calcium elevation: no effect
